≈ marks a conversion by molar mass, not a printed value.
Columns and labels:
[1] = system: methicillin-resistant S. aureus (ATCC 43300); assay: MIC and MBC, broth dilution, MRSA ATCC 43300; assay type: cell-based; details: Staphylococcus aureus
Protocol: (§1) The synthesized pleuromutilin derivatives 8–30 were tested against four Gram-positive bacteria (MRSA ATCC 43300, S. aureus ATCC 29213 and two clinical strains of S. aureus (AD3 and 144) isolated from Guangdong Province). Tiamulin was used as the positive control in this experiment.
(§2) MIC values were tested following our previous work. The derivatives were dissolved in an aqueous solution of 2.5% tween-80 and 2.5% DMSO to make a solution with a concentration of 1000 µg/mL. The solution was diluted 12 times with MH broth to give a concentration range of 32–0.01 µg/mL. The bacteria (5 × 10^5 CFU/mL) were added in each well. For each compound concentration, three parallel experiments were set. The 96-well plate was incubated for 22–26 h at 37 °C. The MIC value was recorded as the minimal concentration that inhibits the visible growth of tested bacteria completely.
(§3) The MBC of these pleuromutilin derivatives were tested according to a previously reference. […] Then, the values of MBC were determined by laying 100 μL aliquots from the wells onto the MH agar plates without visible growth. The MH agar plate was cultured for a further 22–26 h at 37 °C.

[2] = system: S. aureus (ATCC 29213); assay: MIC and MBC, broth dilution, S. aureus ATCC 29213; assay type: cell-based; details: Staphylococcus aureus, ATCC29213
Protocol: as §1, §2, §3

[3] = system: S. aureus (AD3); assay: MIC and MBC, broth dilution, S. aureus AD3; assay type: cell-based; details: Staphylococcus aureus; S. aureus AD3 (clinical strain)
Protocol: as §1, §2, §3

[4] = system: S. aureus (144); assay: MIC and MBC, broth dilution, S. aureus 144; assay type: cell-based; details: Staphylococcus aureus; S. aureus 144 (clinical strain)
Protocol: as §1, §2, §3

[5] = system: 50S ribosome; assay: SPR interaction and affinity analysis; assay type: binding, S. aureus ATCC 43300; details: 4 °C; for Avg ka / Avg kd: 1:1 Langmuir binding; for Kd: KD = Kd/Ka
Protocol: S. aureus ATCC 43300 was used to prepare the 50S ribosomal subunit the same way as described previously. Cells were grown overnight in Brain Heart Infusion broth at 37 °C and harvested for 1.5 h at an OD600. Cells were washed with 10 mM Tris-HCl twice at pH = 7.5, and resuspended in 5 mL buffer A (20 mM HEPES-HCl pH = 7.5, 21 mM Mg(OAc)2, 100 mM NH4Cl, 1 mM DTT, 1 mM EDTA). Cells were broken by an ultrasound crusher. The lysate was centrifuged for 90 min at 20,000× g to clear cell debris.
The solution was layered on a sucrose cushion of 15 mL (10 mM Hepes-KOH pH 7.5, 25 mM Mg(OAc)2, 500 mM KCl, […], 1 mM DTT, 0.5 mM EDTA). Centrifugation was carried out for 15 h at 45,000 rpm using an ultracentrifuge Beckman (Beckman Coulter, Shanghai, China), Type 70Ti rotor. The crude ribosome pellet was resuspended in buffer E (10 mM Hepes-KOH pH 7.5, 10 mM Mg(OAc)2, 100 mM KCl, 1 mM DTT, 0.5 mM EDTA), then layered on 9 mL of 7–30% sucrose gradient and centrifuged in an ultracentrifuge Beckman, type SW40Ti rotor at 17,100 rpm for 15 h. The gradient was analyzed on the AKTA explorer system (Amersham, UK). The fractions corresponding to the 50S ribosomal subunit were collected and further subjected to precipitation by PEG 20,000. The 50S ribosomal subunit pellet was gently dissolved in 200 µL of storage buffer (10 mM HEPES-HCl pH = 7.5, 10 mM Mg(OAc)2, 15 mM KCl, 60 mM NH4Cl, 1 mM DTT) and stored at −80 °C.
SPR affinity analysis was performed on the bScreen LB 991 Label-free Microarray System (Berthold Technologies, Black Forest, Germany) at 4 °C and Biodot AD-1520 Array Printer (BIODOT Inc., Irvine, CA, USA) with a Photo-cross-linker SensorCHIP™. Concentrations of each compound were diluted to 100 μM with DMSO as the printing working solution for immobilization. A Biodot AD-1520 Array Printer (BIODOT Inc., CA, USA) was used to control the photo-cross-linker sensor chip and print samples. Each sample was printed four times. In order to check the chip quality and check whether the detection system works, DMSO was used as a system-negative control and rapamycin as a positive control. All positive control dots were divided into four groups and printed on the four corners of the sensor chip. The sensor chip was dried in vacuum after the array print and quickly transferred to a spectra radiator for a photo cross-linking reaction. The sensor chip was washed with C2H5OH, DMF and H2O in turn and evaporated in a N2 atmosphere for 15 min. Then, the Flowcell Cover were assembled.
The 50S ribosome was diluted separately to 200 nM, 400 nM, 800 nM, 1600 nM and 3200 nM with PBST (pH = 7.4, 0.1% Tween 20). Different concentrations of ribosome solutions were injected at a flow rate of 0.5 μL⋅s^−1 for 600 s at the associating stage at 4 °C, followed by PBST at a flow rate of 0.5⋅μL·s^−1 for 360 s at each dissociating stage. Then, the surface was regenerated with Glycine-HCl (pH = 2.0) at a flow rate of 2⋅μL·s^−1 for 300 s.
The raw data of the binding process of compounds and the 50S ribosome were recorded in real time. We compared the response unit (RU) of surface resonance to determine the different binding affinity between each sample dot. The process and analysis of association rate constants (Ka) and dissociation rate constants (Kd) and the equilibrium dissociation constant (KD, Kd/Ka) were performed using the data analysis software of the bScreen LB 991 Label-free Microarray System according to a single-site binding model (1:1 Langmuir binding) with mass transfer limitations for binding kinetics determination.

| Compound | MIC [1] [µg/mL] | MIC [2] [µg/mL] | MIC [3] [µg/mL] | MIC [4] [µg/mL] | Avg kd [5] [s⁻¹] | melting point [°C] | Kd [5] [µM] | MBC [1] [µg/mL] | MBC [2] [µg/mL] | MBC [3] [µg/mL] | MBC [4] [µg/mL] | Avg ka [5] [M⁻¹ s⁻¹] |
| --- | --- | --- | --- | --- | --- | --- | --- | --- | --- | --- | --- | --- |
| C=C[C@]1(C)C[C@@H](OC(=O)CNCc2ccccc2F)[C@]2(C)[C@H](C)CC[C@]3(CCC(=O)[C@H]32)[C@@H](C)[C@@H]1O [Compound 14, 22-(2-Fluorobenzylamineyl)-22-deoxypleuromutilin] | 1 (≈ 2.06 µM) | 4 (≈ 8.24 µM) | 2 (≈ 4.12 µM) | 4 (≈ 8.24 µM) | 0.065 | 163 to 164 | 424 | 2 (≈ 4.12 µM) | 8 (≈ 16.5 µM) | 8 (≈ 16.5 µM) | 8 (≈ 16.5 µM) | 153 |
| C=C[C@]1(C)C[C@@H](OC(=O)CNCCc2ccccc2C)[C@]2(C)[C@H](C)CC[C@]3(CCC(=O)[C@H]32)[C@@H](C)[C@@H]1O [Compound 18, 22-(2-Methylphenethylamineyl)-22-deoxypleuromutilin] | 1 (≈ 2.02 µM) | 2 (≈ 4.03 µM) | 4 (≈ 8.07 µM) | 4 (≈ 8.07 µM) | 0.00445 | 91 to 93 | 33.2 | 2 (≈ 4.03 µM) | 8 (≈ 16.1 µM) | 16 (≈ 32.3 µM) | 4 (≈ 8.07 µM) | 134 |
| C=C[C@]1(C)C[C@@H](OC(=O)CNCCCCCCCCCCCC)[C@]2(C)[C@H](C)CC[C@]3(CCC(=O)[C@H]32)[C@@H](C)[C@@H]1O [Compound 23, 22-Dodecylamineyl-22-deoxypleuromutilin] | 32 (≈ 58.6 µM) | 32 (≈ 58.6 µM) | 32 (≈ 58.6 µM) | 32 (≈ 58.6 µM) | 0.0011 | 75 to 77 | 0.0456 | 32 (≈ 58.6 µM) | > 32 | > 32 | > 32 | 24100 |
| C=C[C@]1(C)C[C@@H](OC(=O)CNCCO)[C@]2(C)[C@H](C)CC[C@]3(CCC(=O)[C@H]32)[C@@H](C)[C@@H]1O [Compound 28, 22-Ethanolamine-22-deoxypleuromutilin] | 1 (≈ 2.37 µM) | 2 (≈ 4.74 µM) | 2 (≈ 4.74 µM) | 4 (≈ 9.49 µM) | 0.0272 | 91 to 94 | 9.96 | 2 (≈ 4.74 µM) | 8 (≈ 19 µM) | 8 (≈ 19 µM) | 4 (≈ 9.49 µM) | 2730 |

The remaining compounds from weak to strong by MIC [1], led by results:

| MIC [1] [µg/mL] | MIC [2] [µg/mL] | MIC [3] [µg/mL] | MIC [4] [µg/mL] | Avg kd [5] [s⁻¹] | melting point [°C] | Kd [5] [µM] | Compound | MBC [1] [µg/mL] | MBC [2] [µg/mL] | MBC [3] [µg/mL] | MBC [4] [µg/mL] | Avg ka [5] [M⁻¹ s⁻¹] |
| --- | --- | --- | --- | --- | --- | --- | --- | --- | --- | --- | --- | --- |
| 1 (≈ 2.23 µM) | 2 (≈ 4.47 µM) | 2 (≈ 4.47 µM) | 2 (≈ 4.47 µM) | 0.872 | 157 to 159 | – | C=C[C@]1(C)C[C@@H](OC(=O)CN2CCOCC2)[C@]2(C)[C@H](C)CC[C@]3(CCC(=O)[C@H]32)[C@@H](C)[C@@H]1O [Compound 29, 22-Morpholine-22-deoxypleuromutilin] | 1 (≈ 2.23 µM) | 2 (≈ 4.47 µM) | 8 (≈ 17.9 µM) | 4 (≈ 8.94 µM) | 1.57 |
| 1 (≈ 2.16 µM) | 1 (≈ 2.16 µM) | 1 (≈ 2.16 µM) | 2 (≈ 4.31 µM) | 0.00021 | 82 to 83 | 7.77 | C=C[C@]1(C)C[C@@H](OC(=O)CN2CCSCC2)[C@]2(C)[C@H](C)CC[C@]3(CCC(=O)[C@H]32)[C@@H](C)[C@@H]1O [Compound 30, 22-Thiomorpholine-22-deoxypleuromutilin] | 2 (≈ 4.31 µM) | 2 (≈ 4.31 µM) | 4 (≈ 8.63 µM) | 4 (≈ 8.63 µM) | – |
| 0.25 (≈ 0.489 µM) | 0.5 (≈ 0.977 µM) | 2 (≈ 3.91 µM) | 4 (≈ 7.82 µM) | 0.0215 | 105 to 109 | 2920 | C=C[C@]1(C)C[C@@H](OC(=O)CNC23CC4CC(CC(C4)C2)C3)[C@]2(C)[C@H](C)CC[C@]3(CCC(=O)[C@H]32)[C@@H](C)[C@@H]1O [Compound 27, 22-Amantadineyl-22-deoxypleuromutilin] | 0.25 (≈ 0.489 µM) | 1 (≈ 1.95 µM) | 4 (≈ 7.82 µM) | 8 (≈ 15.6 µM) | 7.36 |

Reference: article PMC8838415, “Discovery of Novel Pleuromutilin Derivatives as Potent Antibacterial Agents for the Treatment of MRSA Infection” (Molecules, 2022)
